Laboratory results taken from patent US10370324B2, “Phenyl and pyridinyl hydroxamic acids” (Acetylon Pharmaceuticals, Inc., priority 2016, dated 2019).

How the values were obtained:
HDAC6 = target: T1, HDAC6 (Homo sapiens, UniProt Q9UBN7); experiment: HDAC enzyme assay, HDAC6; format: biochemical; details: 2 ng/ml enzyme, 14 μM tripeptide substrate; given as a range
T1 construct: purchased BPS Biosciences
T1 sequence (Q9UBN7 1-1215): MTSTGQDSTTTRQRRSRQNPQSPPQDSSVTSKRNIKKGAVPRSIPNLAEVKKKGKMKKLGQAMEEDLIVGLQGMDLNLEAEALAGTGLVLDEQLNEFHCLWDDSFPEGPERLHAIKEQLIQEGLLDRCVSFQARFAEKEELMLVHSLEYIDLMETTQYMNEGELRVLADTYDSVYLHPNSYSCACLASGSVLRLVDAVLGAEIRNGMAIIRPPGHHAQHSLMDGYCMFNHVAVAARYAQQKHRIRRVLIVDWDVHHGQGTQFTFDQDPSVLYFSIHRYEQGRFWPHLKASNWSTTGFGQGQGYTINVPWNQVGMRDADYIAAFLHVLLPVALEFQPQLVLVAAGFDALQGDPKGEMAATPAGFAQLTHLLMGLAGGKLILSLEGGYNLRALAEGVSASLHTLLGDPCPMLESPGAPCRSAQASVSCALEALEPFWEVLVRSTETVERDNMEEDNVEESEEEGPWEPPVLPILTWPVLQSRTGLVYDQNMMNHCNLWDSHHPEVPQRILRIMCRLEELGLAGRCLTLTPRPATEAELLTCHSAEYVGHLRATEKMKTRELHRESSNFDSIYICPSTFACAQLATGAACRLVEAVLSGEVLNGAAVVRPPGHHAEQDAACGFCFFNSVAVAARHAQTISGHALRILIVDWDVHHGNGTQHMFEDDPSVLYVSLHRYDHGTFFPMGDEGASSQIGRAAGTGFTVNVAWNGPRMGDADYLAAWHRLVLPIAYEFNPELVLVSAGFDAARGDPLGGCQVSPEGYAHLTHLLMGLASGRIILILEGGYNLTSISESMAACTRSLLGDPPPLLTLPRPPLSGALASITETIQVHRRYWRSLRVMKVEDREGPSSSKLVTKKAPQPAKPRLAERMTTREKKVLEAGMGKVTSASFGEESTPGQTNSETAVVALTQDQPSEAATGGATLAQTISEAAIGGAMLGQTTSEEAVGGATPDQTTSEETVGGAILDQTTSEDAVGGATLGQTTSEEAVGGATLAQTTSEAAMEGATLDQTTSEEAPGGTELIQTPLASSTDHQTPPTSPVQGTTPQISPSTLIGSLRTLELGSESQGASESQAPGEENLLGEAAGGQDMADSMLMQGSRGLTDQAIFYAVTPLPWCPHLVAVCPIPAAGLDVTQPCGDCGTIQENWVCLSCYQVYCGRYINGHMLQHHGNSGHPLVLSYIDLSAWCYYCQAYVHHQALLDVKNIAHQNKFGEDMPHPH
Protocol: (§1) Compounds for testing were diluted in DMSO to 50 fold the final concentration and a ten-point three-fold dilution series was made. The compounds were diluted in assay buffer (50 mM HEPES, pH 7.4, 100 mM KCl, 0.001% Tween-20, 0.05% BSA, 20 ⊐M TCEP) to 6-fold their final concentration. The HDAC enzymes (purchased from BPS Biosciences) were diluted to 1.5-fold their final concentration in assay buffer. The tripeptide substrate and trypsin at 0.05 μM final concentration were diluted in assay buffer at 6-fold their final concentration. The final enzyme concentrations used in these assays were 3.3 ng/ml (HDAC1), 0.2 ng/ml (HDAC2), 0.08 ng/ml (HDAC3) and 2 ng/ml (HDAC6). The final substrate concentrations used were 16 μM (HDAC1), 10 μM (HDAC2), 17 μM (HDAC3) and 14 μM (HDAC6).
(§2) Five μL of compounds and 20 μL of enzyme were added to wells of a black, opaque 384 well plate in duplicate. Enzyme and compound were incubated together at room temperature for 10 minutes. Five μL of substrate was added to each well, the plate was shaken for 60 seconds and placed into a Victor 2 microtiter plate reader. The development of fluorescence was monitored for 60 min and the linear rate of the reaction was calculated. The IC50 was determined using Graph Pad Prism by a four parameter curve fit.

HDAC1 = target: T2, HDAC1 (Homo sapiens, UniProt Q13547); experiment: HDAC enzyme assay, HDAC1; format: biochemical; details: 3.3 ng/ml enzyme, 16 μM tripeptide substrate; given as a range
T2 construct: purchased BPS Biosciences
Protocol: as §1, §2

HDAC2 = target: T3, HDAC2 (Homo sapiens, UniProt Q92769); experiment: HDAC enzyme assay, HDAC2; format: biochemical; details: 0.2 ng/ml enzyme, 10 μM tripeptide substrate; given as a range
T3 construct: purchased BPS Biosciences
Protocol: as §1, §2

[1] = Rat pharmacokinetic studies; format: in vivo; details: male SD rats, IV 1 mg/kg, plasma
Protocol: Male SD rats were fasted overnight. Compounds of the invention were dissolved in dimethyl acetamide at 10 times the final concentration, then Solutol HS 15 (BASF) was added to a final concentration of 10%. Finally 80% saline was added and vortexed to achieve a clear solution. For the IV dosing three animals were injected via the foot dorsal vein with 1 mg/kg compound. For the PO dosing 5 mg/kg of compound was delivered by oral gavage. Blood was collected via the tail vein into K2EDTA tubes at 5 minutes, 15 minutes, 30 minutes, 1 hour, 2 hours, 4 hours, 8 hours and 24 hours after dosing. The blood was centrifuged at 2000 g for 5 minutes at 4° C. to obtain plasma. The plasma was extracted with acetonitrile and the level of compound was analyzed by LC/MS/MS. The level of compound in plasma was calculated from a standard curve in rat plasma. The IV clearance and area under the curve were calculated using WinNonLin software. The dose adjusted area under the curve for the IV and oral dosing were used to calculate the oral bioavailability.

HDAC3 = target: T4, HDAC3 (Homo sapiens, UniProt O15379); experiment: HDAC enzyme assay, HDAC3; format: biochemical; details: 0.08 ng/ml enzyme, 17 μM tripeptide substrate; given as a range
T4 construct: purchased BPS Biosciences
Protocol: as §1, §2

[2] = Mouse pharmacokinetic studies; format: in vivo; details: male C57BL/6 mice, intraperitoneal 5 mg/kg; for Brain AUC: brain homogenate; for AUC / Kp: mouse, ip; for AUC: plasma; for Kp: from AUC values of brain and plasma, read-out: Brain/plasma ratio
Protocol: Male C57BL/6 mice were fasted overnight. Compounds were dissolved in dimethyl acetamide at 10 times the final concentration, then Solutol HS 15 (BASF) was added to a final concentration of 10%. Finally 80% saline was added and vortexed to achieve a clear solution. Fifteen animals were injected intraperitonealy with 5 mg/kg compound. Blood was collected by retro-orbital bleed at 5 minutes, 15 minutes, 30 minutes, 1 hour, 2 hours, 4 hours, 8 hours and 24 hours after dosing. At 5 minutes, 30 minutes, 1 hour and 4 hours after dosing three animals per time point were sacrificed and brains were removed. The blood was centrifuged at 2000 g for 5 minutes at 4° C. to obtain plasma. Brain samples were homogenized in PBS. The plasma and brain homogenate were extracted with acetonitrile and the level of compound was analyzed by LC/MS/MS. The level of compound in plasma was calculated from a standard curve in rat plasma and the level in brain was calculated from a standard curve in brain homogenate. The area under the curve in plasma and brain were calculated using WinNonLin software. The brain to plasma ratio was determined using the area under the curve values for the two compartments.

T3 sequence (Q92769 whole entry): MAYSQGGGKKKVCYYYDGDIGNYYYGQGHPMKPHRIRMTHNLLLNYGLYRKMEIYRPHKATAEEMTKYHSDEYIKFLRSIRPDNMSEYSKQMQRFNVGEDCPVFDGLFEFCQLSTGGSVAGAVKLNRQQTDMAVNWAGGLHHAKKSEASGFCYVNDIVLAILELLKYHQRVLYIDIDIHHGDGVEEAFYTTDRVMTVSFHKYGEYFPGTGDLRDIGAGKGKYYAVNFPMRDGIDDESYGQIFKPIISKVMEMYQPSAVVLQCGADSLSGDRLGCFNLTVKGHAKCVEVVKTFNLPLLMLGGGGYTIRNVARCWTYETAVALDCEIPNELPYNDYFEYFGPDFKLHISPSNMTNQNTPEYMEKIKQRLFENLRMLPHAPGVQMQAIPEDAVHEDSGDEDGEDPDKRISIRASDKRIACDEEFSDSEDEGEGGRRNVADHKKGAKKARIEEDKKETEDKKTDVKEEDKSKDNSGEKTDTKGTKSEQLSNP
T4 sequence (O15379 whole entry): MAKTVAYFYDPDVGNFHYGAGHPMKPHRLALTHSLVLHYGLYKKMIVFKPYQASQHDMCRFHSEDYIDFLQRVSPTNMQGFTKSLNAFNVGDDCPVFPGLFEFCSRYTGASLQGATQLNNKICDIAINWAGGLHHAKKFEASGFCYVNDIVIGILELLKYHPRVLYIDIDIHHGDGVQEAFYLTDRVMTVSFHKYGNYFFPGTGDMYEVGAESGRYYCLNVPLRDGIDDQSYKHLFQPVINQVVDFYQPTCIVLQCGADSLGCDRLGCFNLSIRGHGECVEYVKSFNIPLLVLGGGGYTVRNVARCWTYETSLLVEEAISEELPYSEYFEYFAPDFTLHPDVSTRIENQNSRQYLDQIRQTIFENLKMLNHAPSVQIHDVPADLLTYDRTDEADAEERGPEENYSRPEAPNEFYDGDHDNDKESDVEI
T4 sequence (Q9Y618 395-489 partner limits assumed): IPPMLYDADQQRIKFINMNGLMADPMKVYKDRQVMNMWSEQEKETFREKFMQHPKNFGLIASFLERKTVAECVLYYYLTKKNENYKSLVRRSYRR
T2 sequence (Q13547 whole entry): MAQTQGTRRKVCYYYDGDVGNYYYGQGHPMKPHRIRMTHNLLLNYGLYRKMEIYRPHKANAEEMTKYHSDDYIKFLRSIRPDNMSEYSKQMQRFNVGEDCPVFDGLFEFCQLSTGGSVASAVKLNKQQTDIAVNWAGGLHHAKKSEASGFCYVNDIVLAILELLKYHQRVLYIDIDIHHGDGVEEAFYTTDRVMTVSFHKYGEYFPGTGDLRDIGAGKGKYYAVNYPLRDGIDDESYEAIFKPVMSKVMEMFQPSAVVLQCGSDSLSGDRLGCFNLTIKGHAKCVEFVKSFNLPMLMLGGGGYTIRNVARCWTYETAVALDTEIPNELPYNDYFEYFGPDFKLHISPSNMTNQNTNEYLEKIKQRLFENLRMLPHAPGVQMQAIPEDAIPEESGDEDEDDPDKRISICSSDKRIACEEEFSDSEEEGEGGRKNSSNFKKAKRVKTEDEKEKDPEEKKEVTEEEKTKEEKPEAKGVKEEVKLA

Row | Compound | IC50 (HDAC6) | IC50 (HDAC1) | IC50 (HDAC2) | clearance [1] | IC50 (HDAC3) | Brain AUC [2] | AUC [2] | Kp [2]
1 | O=C(NO)c1ccc(NC(c2ccccc2)c2ccccc2)cn1 [Compound 002] |  |  |  |  |  | 450 to 600 ng·h/mL | 200 to 250 ng·h/mL | 1 to 5
2 | O=C(NO)c1ccc(NCc2cc(F)ccc2F)cc1 [Compound 007] | 4 to 8 nM | 450 to 600 nM | 450 to 600 nM |  | 700 to 800 nM |  |  | 
3 | O=C(NO)c1ccc(NC2(c3cc(F)ccc3F)CCOCC2)cc1 [Compound 008] | 0.1 to 1 nM | 150 to 250 nM | 200 to 300 nM | 83.3 to 167 mL/min/kg | 1000 to 1100 nM |  |  | 
4 | O=C(NO)c1ccc(NC2(c3ccccc3)CC2)cc1 [Compound 009] | 0.5 to 2.5 nM | 50 to 100 nM | 250 to 350 nM | 50 to 117 mL/min/kg | 400 to 500 nM |  |  | 
5 | O=C(NO)c1ccc(NC2(c3ccccc3)CCCCC2)cc1 [Compound 010] | 4 to 8 nM | 1000 to 2000 nM | 1500 to 2000 nM | 33.3 to 66.7 mL/min/kg | 6000 to 7000 nM |  |  | 
6 | O=C(NO)c1ccc(NCc2ccccc2)cc1 [Compound 011] | 15 to 25 nM | 700 to 800 nM | 800 to 900 nM | 91.7 to 117 mL/min/kg | 1200 to 1300 nM |  |  | 
7 | O=C(NO)c1ccc(NCc2ccccc2)cn1 [Compound 012] |  |  |  |  |  | 100 to 150 ng·h/mL | 75 to 125 ng·h/mL | 1 to 3
8 | O=C(NO)c1ccc(N(c2ccccc2)c2ccccc2)cn1 [Compound 013] |  |  |  |  |  | 600 to 800 ng·h/mL | 150 to 250 ng·h/mL | 2 to 6

Second part, the compound after the results:

Row | IC50 (HDAC6) | IC50 (HDAC1) | IC50 (HDAC2) | clearance [1] | IC50 (HDAC3) | Brain AUC [2] | AUC [2] | Kp [2] | Compound
9 | 1 to 6 nM | 200 to 400 nM | 200 to 400 nM | 16.7 to 83.3 mL/min/kg | 200 to 400 nM |  |  |  | COc1ccc(Cl)cc1CNc1ccc(C(=O)NO)cc1 [Compound 001]
10 | 4 to 8 nM | 100 to 200 nM | 100 to 200 nM |  | 100 to 200 nM |  |  |  | O=C(NO)c1ccc(NCc2cc(Cl)ccc2Cl)cc1 [Compound 004]
11 | 1 to 6 nM | 500 to 800 nM | 500 to 800 nM | 167 to 333 mL/min/kg | 500 to 800 nM |  |  |  | COc1ccc(F)cc1CNc1ccc(C(=O)NO)cc1 [Compound 005]
12 | 30 to 40 nM | 450 to 600 nM | 900 to 1100 nM |  | 900 to 1100 nM |  |  |  | COc1ccc(OC)c(CNc2ccc(C(=O)NO)cc2)c1 [Compound 006]
